Data published in patent US20220259167A1 (UNIVERSITY HEALTH NETWORK, priority 2019, published 2022).
Values joined by “and” are separate entries in the source; they are usually repeats but may differ in a detail not shown here. Equal values may be shown once. Read-outs that look alike come from different tables or passages of the source.

Assays:
SIM-A9 cells = assay: Anti-inflammation assay: TNF-α production from LPS stimulated SIM-A9 cells (ELISA); assay type: cell-based; details: compound 2.7 μM; LPS stimulated SIM-A9 cells; read-out: TNF-α Inhibition
Aβ 1-40 = Aβ 1-40 (Homo sapiens, UniProt P05067); assay: Aβ ThT aggregation (fibrillization) assay; assay type: biochemical; details: compound at 100 μM
Sequence of Aβ 1-40 (P05067 672-711): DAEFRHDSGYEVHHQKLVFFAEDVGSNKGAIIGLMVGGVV

[1] = target: biotinylated amyloid-beta(1-42) (bioAbeta42) (Homo sapiens, UniProt P05067); assay type: biochemical
Sequence of biotinylated amyloid-beta(1-42) (bioAbeta42) (P05067 672-713): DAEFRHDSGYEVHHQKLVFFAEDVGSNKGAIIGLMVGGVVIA

[2] = Example 5, ND = inhibition activity not detected over 200 μM, read-out: Inhibition of Aβ oligomerization, μM IC50
[3] = Example 5, versus DMSO control, read-out: Inhibition of Aβ fibrillization at concentration 100 μM, Inhibition %
[4] = Example 2, read-out: Anti-Aβ oligomerization IC50
[5] = Example 3, read-out: % inhibition of Aβ fibrillization (at 100 μ M)

Compound | inhibition at 2.7 µM (SIM-A9 cells) | IC50 [1, 2] | other results
CNS(=O)(=O)c1cc(C(N)=O)c(NCc2ccco2)cc1Cl [WW101, 4-Chloro-2-((furan-2-ylmethyl)amino)-5-(N-methylsulfamoyl)benzamide] | 27% | 82.4 ± 28.5 µM | Inhibition of Aβ fibrillization at concentration 100 μM, Inhibition % (Aβ 1-40; Example 5, versus DMSO control): Pro- fibrillization
COc1ccc(C(=O)O)c(NCc2ccoc2)c1 [Compound 5-LV-56A] | 32% |  | 
CCNC(=O)c1cc(C(=O)OC)c(NCc2ccco2)cc1Cl [SIV-W172, Methyl 4-chloro-5-(ethylcarbamoyl)-2-((furan-2-ylmethyl)amino)benzoate] | 18% |  | 
O=C(O)c1cc(S(=O)(=O)NC2CC2)c(Cl)cc1NCc1ccco1 [WW030, 4-Chloro-5-(N-cyclopropylsulfamoyl)-2-((furan-2-ylmethyl)amino)benzoic Acid] |  | > 200 µM | 
CNS(=O)(=O)c1cc(CO)c(NCc2ccco2)cc1Cl [WW109, 2-Chloro-4-((furan-2-ylmethyl)amino)-5-(hydroxymethyl)-N-methylbenzenesulfonamide] | 21% | 117 ± 3.95 µM | 
CNC(=O)c1cc(C(=O)O)c(NCc2ccco2)cc1Cl [SIV-W168, 4-Chloro-2-((furan-2-ylmethyl)amino)-5-(methylcarbamoyl)benzoic Acid] | 27% | > 200 µM | 
Cc1ccc(CNS(=O)(=O)c2cc(C(=O)O)c(NCc3ccco3)cc2Cl)cc1 [WW065, 4-Chloro-2-((furan-2-ylmethyl)amino)-5-(N-(4-methylbenzyl)sulfamoyl) Benzoic Acid] | 20% | > 200 µM | 
O=C(O)c1cc(S(=O)(=O)Nc2ccccc2)c(Cl)cc1NCc1ccco1 [SI-W080, 4-Chloro-2-((furan-2-ylmethyl)amino)-5-(N-phenylsulfamoyl) benzoic acid] |  | 168 ± 29 µM | inhibition at 100 µM (Aβ 1-40; [3]): 17.4%
CN(Cc1ccccc1)S(=O)(=O)c1cc(C(=O)O)c(NCc2ccco2)cc1Cl [WW052, 5-(N-Benzyl-N-methylsulfamoyl)-4-chloro-2-((furan-2-ylmethyl)amino) benzoic Acid] | 24.1% | 21.9 ± 7.36 µM | IC50 [1, 4]: 21.7 µM
CNS(=O)(=O)c1cc(-c2nnn[nH]2)c(NCc2ccco2)cc1Cl [WW121] | 2% | 70.5 ± 15.7 µM | 
O=C(O)c1cc(S(=O)(=O)NCc2ccc(C(O)C(F)(F)F)cc2)c(Cl)cc1NCc1ccco1 (centres unmarked) [WW036, 4-Chloro-2-((furan-2-ylmethyl)amino)-5-(N-(4-(2,2,2-trifluoro-1-hydroxyethyl)benzyl)sulfamoyl)benzoic Acid] |  | 68.5 ± 18.7 µM | Inhibition of Aβ fibrillization at concentration 100 μM, Inhibition % (Aβ 1-40; Example 5, versus DMSO control): Pro- fibrilliza- tion
O=C(O)c1ccc(Cl)cc1NCCc1ccccc1 [LD3-306, 4-Chloro-2-(phenethylamino)benzoic Acid] | 21% |  | 
CNS(=O)(=O)c1cc(-c2noc(=O)[nH]2)c(NCc2ccco2)cc1Cl [WW187, 2-Chloro-4-((furan-2-ylmethyl)amino)-N-methyl-5-(5-oxo-2,5-dihydro-1,2,4-oxadiazol-3-yl)benzenesulfonamide] | 20% | > 200 µM | 
O=C(O)c1cc(C(=O)N2CCCCC2)c(Cl)cc1NCc1ccco1 [SIV-W167, 4-Chloro-2-((furan-2-ylmethyl)amino)-5-(piperidine-1-carbonyl)benzoic Acid] |  | > 200 µM | 
CNS(=O)(=O)c1cc(C(=O)N(C)C)c(NCc2ccco2)cc1Cl [WW103, 4-Chloro-2-((furan-2-ylmethyl)amino)-N, N-dimethyl-5-(N-methylsulfamoyl) Benzamide] |  |  | inhibition at 100 µM (Aβ 1-40; [5]): 25.2%; inhibition at 100 µM (Aβ 1-40; [3]): 25.2%; IC50 ([1]; Example 5, ND = inhibition activity not detected over 200 μM, listed as SII-W103, read-out: Inhibition of Aβ oligomerization, μM IC50): 6.5 µM and 6.56 µM
CCCCCCNS(=O)(=O)c1cc(C(=O)O)c(NCc2ccco2)cc1Cl [WW064, 4-Chloro-2-((furan-2-ylmethyl)amino)-5-(N-hexylsulfamoyl) Benzoic Acid] |  | 47.8 ± 14.3 µM | inhibition at 100 µM (Aβ 1-40; [5]): 39.2%; inhibition at 100 µM (Aβ 1-40; [3]): 39.2%; IC50 [1, 4]: 46.1 µM
O=C(O)c1ccc(Cl)cc1NCc1ccoc1 [LD3-310, 4-Chloro-2-((furan-3-ylmethyl)amino)benzoic Acid] | 24% |  | 
COc1ccc(C(=O)O)c(NCc2ccccc2)c1 [Compound 5-LV-54B, 2-(Benzylamino)-4-methoxybenzoic Acid] | 30% |  | 
COc1c(C)ccc(CNc2cc(F)ccc2C(O)C(F)(F)F)c1OC (centres unmarked) [WW-028] | 19.9% |  | 
O=C(O)c1cc(S(=O)(=O)NC2CCCCC2)c(Cl)cc1NCc1ccco1 [WW082, 4-Chloro-5-(N-cyclohexylsulfamoyl)-2-((furan-2-ylmethyl)amino) Benzoic Acid] | 11% | 116 ± 13.8 µM | 
COc1ccc(C(=O)O)c(NCc2ccco2)c1 [Compound 5-LV-54A] | 16% |  | 
CCNC(=O)c1cc(C(=O)O)c(NCc2ccco2)cc1Cl [SIV-W174, 4-Chloro-5-(ethylcarbamoyl)-2((furan-2-ylmethyl)amino)benzoic Acid] | 21% | > 200 µM | 

Compound | inhibition at 2.7 µM (SIM-A9 cells) | IC50 [1, 2] | other results
O=C(O)c1cc(S(=O)(=O)NCc2ccccc2)c(Cl)cc1NCc1ccco1 [WW035, 5-(N-benzylsulfamoyl)-4-chloro-2-((furan-2-ylmethyl)amino)benzoic Acid] |  | > 200 µM | 
CN(C)C(=O)c1cc(C(=O)O)c(NCc2ccco2)cc1Cl [SIV-W173, 4-Chloro-5-(dimethylcarbamoyl)-2((furan-2-ylmethyl)amino)benzoic Acid] | 25% | > 200 µM | 
O=C(O)c1ccc(Br)cc1NCc1ccco1 [WW073, 4-Bromo-2-((furan-2-ylmethyl)amino) Benzoic Acid] | 27% | 154 ± 33.8 µM | 
O=C(O)c1ccc(Cl)cc1NCc1ccco1 [WW001, 4-Chloro-2-((furan-2-ylmethyl)amino) Benzoic Acid] |  | > 200 µM | inhibition at 100 µM (Aβ 1-40; [3]): 20.2%
O=C(Nc1ccccc1)c1cc(C(=O)O)c(NCc2ccco2)cc1Cl [SIV-W179, 4-Chloro-2((furan-2-ylmethyl)amino)-5-(phenylcarbamoyl)benzoic Acid] | 22% | > 200 µM | 
O=C(O)c1cc(S(=O)(=O)N2CCOCC2)c(Cl)cc1NCc1ccco1 [WW049, 4-Chloro-2((furan-2-ylmethyl)amino)-5-(morpholinosulfony)benzoic Acid] |  | 41.2 ± 12.8 µM | Inhibition of Aβ fibrillization at concentration 100 μM, Inhibition % (Aβ 1-40; Example 5, versus DMSO control): Pro- fibrilliza- tion; IC50 [1, 4]: 38.5 µM
CN(C)S(=O)(=O)c1cc(C(=O)O)c(NCc2ccco2)cc1Cl [WW062, 4-Chloro-5-(N, N-dimethylsulfamoyl)-2-((furan-2-ylmethyl)amino) Benzoic Acid] |  | 113 ± 22.8 µM | Inhibition of Aβ fibrillization at concentration 100 μM, Inhibition % (Aβ 1-40; Example 5, versus DMSO control): Pro- fibrilliza- tion
CNC(=O)c1cc(C(=O)OC)c(NCc2ccco2)cc1Cl [SIV-W155, Methyl 4-chloro-2-((furan-2-ylmethyl)amino)-5-(methylcarbamoyl)benzoate] | 20% |  | 
O=C(O)c1ccc(F)cc1NCc1ccco1 [WW071, 4-Fluoro-2-((furan-2-ylmethyl)amino)benzoic Acid] |  | 130 ± 25.8 µM | 
COC(=O)c1cc(C(=O)Nc2ccccc2)c(Cl)cc1NCc1ccco1 [SIV-W178, Methyl 4-chloro-2-((furan-2-ylmethyl)amino)-5-(phenylcarbamoyl)benzoate] | 12% |  | 
COC(=O)c1cc(C(=O)N2CCCCC2)c(Cl)cc1NCc1ccco1 [SIV-W160, Methyl 4-chloro-2-((furan-2-ylmethyl)amino)-5-(piperidine-1-carbonyl)benzoate] | 25% |  | 
NC(=O)c1cc(C(=O)O)c(NCc2ccco2)cc1Cl [SIV-W164, 5-Carbamoyl-4-chloro-2((furan-2-ylmethyl)amino) Benzoic Acid] |  | > 200 µM | 
O=C(O)c1cc(S(=O)(=O)NCCc2ccccc2)c(Cl)cc1NCc1ccco1 [WW056, 4-Chloro-2-((furan-2-ylmethyl)amino)-5-(N-phenethylsulfamoyl) Benzoic Acid] | 13% | > 200 µM | 
COC(=O)c1cc(S(N)(=O)=O)c(Cl)cc1NCc1ccco1 [WW-161] | 24% |  | 
COc1ccc(CNS(=O)(=O)c2cc(C(=O)O)c(NCc3ccco3)cc2Cl)cc1 [WW063, 4-Chloro-2-((furan-2-ylmethyl)amino)-5-(N-(4-methoxybenzyl)sulfamoyl) Benzoic Acid] |  | > 200 µM | 
O=C(O)c1ccc(Cl)cc1NCc1ccccc1 [LD3-305, 2-(Benzylamino)-4-chlorobenzoic Acid] | 30% |  | 
O=C(O)c1ccc(Cl)cc1NCc1cccs1 [LD3-309, 4-Chloro-2-((thiophen-2-ylmethyl)amino)benzoic Acid] | 18% |  | 
CC(NS(=O)(=O)c1cc(C(=O)O)c(NCc2ccco2)cc1Cl)c1ccccc1 (centres unmarked) [WW053, 4-Chloro-2-((furan-2-ylmethyl)amino)-5-(N-(1-phenylethyl)sulfamoyl) benzoic Acid] |  | 41.1 ± 20.4 µM | IC50 [1, 4]: 38.5 µM
CNS(=O)(=O)c1cc(C(=O)O)c(NCc2ccco2)cc1Cl [WW032, 4-chloro-2-((furan-2-ylmethyl)amino)-5-(N-methylsulfamoyl) Benzoic Acid] |  | 53 ± 3.37 µM | Inhibition of Aβ fibrillization at concentration 100 μM, Inhibition % (Aβ 1-40; Example 5, versus DMSO control): Pro- fibrilliza- tion; IC50 [1, 4]: 55.1 µM
O=C(O)c1cc(C(=O)N2CCOCC2)c(Cl)cc1NCc1ccco1 [SIV-W166, 4-Chloro-2-((furan-2-ylmethyl)amino)-5-(morpholine-4-carbonyl)benzoic acid] | 25% | > 200 µM | 
Cc1ccc(CNc2cc(F)ccc2C(O)C(F)(F)F)c(C)c1 (centres unmarked) [WW-024] | 11.2% |  | 
CCNS(=O)(=O)c1cc(C(=O)O)c(NCc2ccco2)cc1Cl [WW057, 4-Chloro-5-(N-ethylsulfamoyl)-2-((furan-2-ylmethyl)amino) Benzoic Acid] |  | 137 ± 11.9 µM | 
